The record followed here is patent US10344054B2, “Angiotensin-1-receptor antagonists” (Ferring B.V., priority 2016, dated 2019).

pIC50: −log10 of the molar value. Starred links: 1 amine or outer side, 2 acyl side, 3 side chain; linkers in the order of their positions; H or OH if unused. Non-standard residues stand in square brackets, D forms with d. Residues, ends and D or L forms follow the SMILES beside them. X1 = O=C(CN(C[C@H](O)[C@@H](O)[C@H](O)[C@H](O)CO)[*:1])[*:2]; dPhe(2-Cl) = N[C@H](Cc1ccccc1Cl)C(=O)O; dPhe(2-Me) = Cc1ccccc1C[C@@H](N)C(=O)O; Gly(cPent) = N[C@H](C(=O)O)C1CCCC1; Chg = N[C@H](C(=O)O)C1CCCCC1

The target of assay [1] is T1, hAT1R (Homo sapiens, UniProt P30556).
T1 sequence (P30556 1-359): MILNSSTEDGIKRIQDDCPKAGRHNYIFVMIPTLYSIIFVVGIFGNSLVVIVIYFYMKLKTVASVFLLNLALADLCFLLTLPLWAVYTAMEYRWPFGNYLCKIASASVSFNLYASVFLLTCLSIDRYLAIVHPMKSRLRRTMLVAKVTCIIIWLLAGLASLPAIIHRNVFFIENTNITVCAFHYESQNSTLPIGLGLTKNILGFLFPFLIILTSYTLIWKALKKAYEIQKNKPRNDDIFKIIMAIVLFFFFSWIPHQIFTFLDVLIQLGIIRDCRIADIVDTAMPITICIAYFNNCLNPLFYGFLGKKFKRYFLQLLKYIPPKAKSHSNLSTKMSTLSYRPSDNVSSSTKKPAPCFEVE
The assay is described as follows: FLIPR calcium flux assay, Part I: agonist activity. Format: cell-based. Conditions: ChanTest hAT1R stable cells; % MPE, percent of the maximal possible effect; read-out: hAT1R Agonist Efficacy Agonist (%) Ave. A general note: Calcium assays in cells follow changes in intracellular calcium, usually with a dye or a luminescent sensor.

For assay [2], the target named is T1, hAT1R. The assay is described as follows: FLIPR calcium flux assay, Part II: antagonist activity against Angiotensin II. On hAT1R Antagonist Efficacy Antag (%) Ave: Angiotensin II 10 nM final concentration. It counts as cell-based. Conditions: for Emax: read-out: hAT1R Antagonist Efficacy Antag (%) Ave; for pIC50: read-out: hAT1R Antagonist IC50 Ave.

With `CNCC(=O)N[C@@H](CCCNC(=N)N)C(=O)N[C@H](C(=O)N[C@@H](Cc1ccc(O)cc1)C(=O)N[C@H](C(=O)N[C@@H](Cc1c[nH]cn1)C(=O)N1CCC[C@H]1C(=O)N[C@H](Cc1ccccc1C)C(=O)O)C1CCCCC1)C(C)C` [Compound 27, Sar-Arg-Val-Tyr-Chg-His-Pro-(D-Phe(2-Me))—OH] (HELM PEPTIDE1{[Sar].R.V.Y.[O=C([C@@H](N[*:1])C1CCCCC1)[*:2]].H.P.[Cc1ccccc1C[C@@H](N[*:1])C(=O)O]}$$$$V2.0), on hAT1R [1], the Emax came out at 8%. Also, at hAT1R [2], the Emax was found to be 100% and the pIC50 – broadly, the negative decadic logarithm of the IC50, by convention in mol/L – is 7.84.

Consider `CC(C)[C@H](NC(=O)[C@H](CCCNC(=N)N)NC(=O)CNC[C@H](O)[C@@H](O)[C@H](O)[C@H](O)CO)C(=O)N[C@@H](Cc1ccc(O)cc1)C(=O)N[C@H](C(=O)N[C@@H](Cc1c[nH]cn1)C(=O)N1CCC[C@H]1C(=O)N[C@H](Cc1ccccc1Cl)C(=O)O)C1CCCCC1` [Compound 31, Glac-Arg-Val-Tyr-Chg-His-Pro-(D-Phe(2-Cl))—OH] (H-[X1]RVY[Chg]HP[dPhe(2-Cl)]-OH), for which the Emax on hAT1R [1] was 6%. Further, on hAT1R [2], the Emax came to 99% and the pIC50 is 7.80.

As for `CC[C@H](C)[C@H](NC(=O)[C@H](Cc1ccc(O)cc1)NC(=O)[C@@H](NC(=O)[C@H](CCCNC(=N)N)NC(=O)CNC)C(C)C)C(=O)N[C@@H](Cc1c[nH]cn1)C(=O)N1CCC[C@H]1C(=O)N[C@H](Cc1ccccc1Cl)C(=O)O` [Compound 25, Sar-Arg-Val-Tyr-Ile-His-Pro-(D-Phe(2-Cl))—OH], the Emax at hAT1R [1] was determined as 2%; on hAT1R [2] it was 100%. Also, the pIC50 on hAT1R [2] is 7.94.

In the case of `Cc1ccccc1C[C@@H](NC(=O)[C@@H]1CCCN1C(=O)[C@H](Cc1c[nH]cn1)NC(=O)[C@@H](NC(=O)[C@H](Cc1ccc(O)cc1)NC(=O)[C@@H](NC(=O)[C@H](CCCNC(=N)N)NC(=O)CNC[C@H](O)[C@@H](O)[C@H](O)[C@H](O)CO)C(C)C)C1CCCC1)C(=O)O` [Compound 44, Glac-Arg-Val-Tyr-Cpg-His-Pro-(D-Phe(2-Me))—OH] (H-[X1]RVY[Gly(cPent)]HP[dPhe(2-Me)]-OH), on hAT1R [1], the Emax is 7%. In addition, on hAT1R [2], the Emax turned out to be 101% and the pIC50 was 7.69.

Regarding `CCCCC(=O)N(Cc1ccc(-c2ccccc2-c2nnn[nH]2)cc1)[C@H](C(=O)O)C(C)C` [Ref. Cpd. 4, Valsartan, reference compound], the Emax at hAT1R [1] stood at 0.7%; on hAT1R [2], 100%.

`CNCC(=O)N[C@@H](CCCNC(=N)N)C(=O)N[C@H](C(=O)N[C@@H](Cc1ccc(O)cc1)C(=O)N[C@H](C(=O)N[C@@H](Cc1c[nH]cn1)C(=O)N1CCC[C@H]1C(=O)N[C@H](Cc1ccccc1-c1ccccc1)C(=O)O)C1CCCCC1)C(C)C` [Compound 36, Sar-Arg-Val-Tyr-Chg-His-Pro-(D-Phe(2-Ph))—OH] (HELM PEPTIDE1{[Sar].R.V.Y.[O=C([C@@H](N[*:1])C1CCCCC1)[*:2]].H.P.[O=C(O)[C@@H](Cc1ccccc1-c1ccccc1)N[*:1]]}$$$$V2.0): the Emax turned out to be 13% at hAT1R [1] and 100% at hAT1R [2]. Further, the pIC50 on hAT1R [2] was 7.59.

`CC[C@H](C)[C@H](NC(=O)[C@H](Cc1ccc(O)cc1)NC(=O)[C@@H](NC(=O)[C@H](CCCNC(=N)N)NC(=O)CNC)C(C)C)C(=O)N[C@@H](Cc1c[nH]cn1)C(=O)N1CCC[C@H]1C(=O)N[C@H](Cc1ccccc1)C(=O)O` [Ref. Cpd. 2, Sar-Arg-Val-Tyr-Ile-His-Pro-D-Phe-OH, reference compound]: the Emax on hAT1R [1] came to 25%. Besides, at hAT1R [2], the Emax was found to be 99% and the pIC50 is 7.84.

In the case of `CC(C)[C@H](NC(=O)[C@H](CCCNC(=N)N)NC(=O)CNC[C@H](O)[C@@H](O)[C@H](O)[C@H](O)CO)C(=O)N[C@@H](Cc1ccc(O)cc1)C(=O)N[C@H](C(=O)N[C@@H](Cc1c[nH]cn1)C(=O)N1CCC[C@H]1C(=O)N[C@H](Cc1ccccc1Cl)C(=O)O)C(C)C` [Compound 29, Glac-Arg-Val-Tyr-Val-His-Pro-(D-Phe(2-Cl))—OH] (HELM PEPTIDE1{[O=C(CNC[C@H](O)[C@@H](O)[C@H](O)[C@H](O)CO)[*:2]].R.V.Y.V.H.P.[O=C(O)[C@@H](Cc1ccccc1Cl)N[*:1]]}$$$$V2.0), the figures for the Emax on hAT1R [1] and at hAT1R [2] were 6% and 99%, respectively. Further, the pIC50 at hAT1R [2] was 7.71.

`CNCC(=O)N[C@@H](CCCNC(=N)N)C(=O)N[C@H](C(=O)N[C@@H](Cc1ccc(O)cc1)C(=O)N[C@H](C(=O)N[C@@H](Cc1c[nH]cn1)C(=O)N1CCC[C@H]1C(=O)N[C@H](Cc1cccc2ccccc12)C(=O)O)C(C)C)C(C)C` [Compound 1, Sar-Arg-Val-Tyr-Val-His-Pro-(D-1Nal)-OH] (HELM PEPTIDE1{[Sar].R.V.Y.V.H.P.[O=C(O)[C@@H](Cc1cccc2ccccc12)N[*:1]]}$$$$V2.0): the results for the Emax on hAT1R [1] and at hAT1R [2] were 5% and 99%, respectively. Also, the pIC50 on hAT1R [2] was 7.97.

For the molecule `CNCC(=O)N[C@@H](CCCNC(=N)N)C(=O)N[C@H](C(=O)N[C@@H](Cc1ccc(O)cc1)C(=O)N[C@H](C(=O)N[C@@H](Cc1c[nH]cn1)C(=O)N1CCC[C@H]1C(=O)N[C@H](Cc1ccccc1Br)C(=O)O)C(C)C)C(C)C` [Compound 11, Sar-Arg-Val-Tyr-Val-His-Pro-(D-Phe(2-Br))—OH] (HELM PEPTIDE1{[Sar].R.V.Y.V.H.P.[O=C(O)[C@@H](Cc1ccccc1Br)N[*:1]]}$$$$V2.0), the figures for the Emax at hAT1R [1] and on hAT1R [2] were 4% and 99%, respectively. In addition, the pIC50 at hAT1R [2] is 8.06.

With `CNCC(=O)N[C@@H](CCCNC(=N)N)C(=O)N[C@H](C(=O)N[C@@H](Cc1ccc(O)cc1)C(=O)N[C@H](C(=O)N[C@@H](Cc1c[nH]cn1)C(=O)N1CCC[C@H]1C(=O)N[C@H](Cc1cccc2ccccc12)C(=O)O)C1CCCCC1)C(C)C` [Compound 34, Sar-Arg-Val-Tyr-Chg-His-Pro-(D-1Nal)-OH] (HELM PEPTIDE1{[Sar].R.V.Y.[O=C([C@@H](N[*:1])C1CCCCC1)[*:2]].H.P.[O=C(O)[C@@H](Cc1cccc2ccccc12)N[*:1]]}$$$$V2.0), the Emax at hAT1R [1] is 5%. For the same molecule, at hAT1R [2], the Emax was found to be 100% and the pIC50 was 7.81.

Regarding `CNCC(=O)N[C@@H](CCCNC(=N)N)C(=O)N[C@H](C(=O)N[C@@H](Cc1ccc(O)cc1)C(=O)N[C@@H](Cc1ccsc1)C(=O)N[C@@H](Cc1c[nH]cn1)C(=O)N1CCC[C@H]1C(=O)N[C@H](Cc1ccccc1Cl)C(=O)O)C(C)C` [Compound 22, Sar-Arg-Val-Tyr-(3-Thi)-His-Pro-(D-Phe(2-Cl))—OH] (HELM PEPTIDE1{[Sar].R.V.Y.[O=C([C@H](Cc1ccsc1)N[*:1])[*:2]].H.P.[O=C(O)[C@@H](Cc1ccccc1Cl)N[*:1]]}$$$$V2.0), the Emax on hAT1R [1] is 3%. Besides, on hAT1R [2], the Emax worked out at 99% and the pIC50 was 8.30.

As for `CNCC(=O)N[C@@H](CCCNC(=N)N)C(=O)N[C@H](C(=O)N[C@@H](Cc1ccc(O)cc1)C(=O)N[C@H](C(=O)N[C@@H](Cc1c[nH]cn1)C(=O)N1CCC[C@H]1C(=O)N[C@H](Cc1ccccc1C(F)(F)F)C(=O)O)C1CCCCC1)C(C)C` [Compound 26, Sar-Arg-Val-Tyr-Chg-His-Pro-(D-Phe(2-CF3))—OH] (HELM PEPTIDE1{[Sar].R.V.Y.[O=C([C@@H](N[*:1])C1CCCCC1)[*:2]].H.P.[O=C(O)[C@@H](Cc1ccccc1C(F)(F)F)N[*:1]]}$$$$V2.0), the Emax at hAT1R [1] was determined as 12%. For the same molecule, on hAT1R [2], the Emax was 99% and the pIC50 was 7.48.

For `CNCC(=O)N[C@@H](CCCNC(=N)N)C(=O)N[C@H](C(=O)N[C@@H](Cc1ccc(O)cc1)C(=O)N[C@@H](Cc1cccs1)C(=O)N[C@@H](Cc1c[nH]cn1)C(=O)N1CCC[C@H]1C(=O)N[C@H](Cc1ccccc1Cl)C(=O)O)C(C)C` [Compound 23, Sar-Arg-Val-Tyr-(2-Thi)-His-Pro-(D-Phe(2-Cl))—OH] (HELM PEPTIDE1{[Sar].R.V.Y.[O=C([C@H](Cc1cccs1)N[*:1])[*:2]].H.P.[O=C(O)[C@@H](Cc1ccccc1Cl)N[*:1]]}$$$$V2.0), at hAT1R [1], the Emax is 4%. Besides, at hAT1R [2], the Emax was found to be 98% and the negative-log IC50 (pIC50) is 8.28.
